{"source": "patent US20220133694A1", "about": "“PHARMACEUTICAL USE” (Novartis AG, priority 2015, published 2022)", "system": "heart failure patients (NYHA class II-IV) with reduced ejection fraction", "settings": "randomized patients", "experimental": "Patients enrolled were stratified based on the pre-study level of RAAS inhibition (high/low).\nPatients were stratified based on the level of RAAS inhibition as follows: • High RAAS stratum: Patients receiving >160 mg of valsartan or >10 mg total daily dose of enalapril, or equivalent doses of other ARBs/ACEls, respectively, at screening • Low RAAS stratum: Patients receiving ≤160 mg of valsartan or ≤10 mg total daily dose of enalapril, or equivalent doses of other ARBs/ACEls, respectively, at screening. This stratum also included patients who were not on an ACEI or an ARB 4 weeks prior to screening (i.e., ACEI/ARB-naive patients)\nPatients who met all the entry criteria and completed the ACEI-free washout period (if required) attended Visit 2 within approximately one week after Visit 1. […] Eligible hospitalized patients also took the study medication while they were still in the hospital and before they were discharged. Patients took the study medication in addition to their background HF therapy, except for ACEIs and ARBs, which were replaced by the study medication.", "data": [{"substance": "trisodium [3-((1S,3R)-1-biphenyl-4-ylmethyl-3-ethoxycarbonyl-1-butylcarbamoyl) propionate-(S)-3′-methyl-2′-(pentanoyl{2″-(tetrazol-5-ylate)biphenyl-4′-ylmethyl}amino)butyrate]hemipentahydrate [LCZ696]", "values": [{"measurement": "most common reasons for dose adjustment/interruption or permanent discontinuation (AEs)", "result": "hypotension, renal dysfunction or hyperkalemia"}]}]}
